Assay results taken from PubChem BioAssay (NCI).
In brackets after ≈: the same amount, converted by molar mass.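 Growth conditions: 96-well plates. Treatment: test compound, 48 hours, 5 concentrations. Analysis: linear interpolation between bracketing concentrations; unreached endpoints set to highest concentration. Abbreviation: GI50, concentration required for 50% inhibition of growth. TGI marks complete inhibition of growth.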

Experiments:
Test in all cases: NCI tumour cell line growth inhibition, 48 h
ACHN renal = tested on: ACHN renal
U251 CNS = tested on: U251 CNS
A498 renal = tested on: A498 renal
LOX IMVI melanoma = tested on: LOX IMVI melanoma
OVCAR-4 ovarian = tested on: OVCAR-4 ovarian
SNB-75 CNS = tested on: SNB-75 CNS
KM12 colon = tested on: KM12 colon
HCT-15 colon = tested on: HCT-15 colon
OVCAR-3 ovarian = tested on: OVCAR-3 ovarian
UACC-257 melanoma = tested on: UACC-257 melanoma

Structure (SMILES) | TGI (ACHN renal) | TGI (U251 CNS) | TGI (A498 renal) [µM] | TGI (LOX IMVI melanoma) | TGI (OVCAR-4 ovarian) | TGI (SNB-75 CNS) | TGI (KM12 colon) | TGI (HCT-15 colon) | TGI (OVCAR-3 ovarian) | TGI (UACC-257 melanoma) | GI50 (ACHN renal) [µg/mL] | GI50 (U251 CNS) [µg/mL] | GI50 (LOX IMVI melanoma) [µg/mL] | GI50 (OVCAR-4 ovarian) [µg/mL] | GI50 (SNB-75 CNS) | GI50 (KM12 colon) [µg/mL] | GI50 (HCT-15 colon) [µg/mL] | GI50 (OVCAR-3 ovarian) | GI50 (UACC-257 melanoma) [µg/mL] | GI50 (A498 renal) [µM]
COc1c2c(cc3c1C(O)N1CC[C@]34[C@H]3O[C@H]3[C@H](OC)C[C@@H]14)OCO2 (stereo partly drawn) | > 100 µM | > 100 µM | > 100 | > 100 µM | > 100 µM | > 100 µM | > 100 µM | > 100 µM | 38.4 µM | > 100 µM |  |  |  |  |  |  |  |  |  | 
OCCOCn1cc(Cn2ncc3c(SCc4ccccc4)ncnc32)nn1 | > 100 µM | > 100 µM | > 100 | > 100 µM | > 100 µM | > 100 µM | > 100 µM | > 100 µM | > 100 µM | > 100 µM |  |  |  |  |  |  |  |  |  | 
O=C(CCN1CC2CCC(CC2)C1)c1cccs1 | 33.6 µM | 33.5 µM | > 100 | 27.7 µM | > 74.6 µM | 35 µM | 40.7 µM | 44.1 µM | 58 µM | 30.4 µM |  |  |  |  |  |  |  |  |  | 
CC1(C)CC(=O)C2=C(C1)NC(SSC1=C(C#N)C(c3ccc(F)cc3)C3=C(CC(C)(C)CC3=O)N1)=C(C#N)C2c1ccc(F)cc1 (stereo not drawn) | 53.7 µg/mL | 15 µg/mL |  | 63.3 µg/mL | 52.7 µg/mL | > 150 µg/mL | > 150 µg/mL | 64 µg/mL | 46.1 µg/mL | 51.6 µg/mL | 28.7 (≈ 43.8 µM) | 15 (≈ 22.9 µM) | 30.5 (≈ 46.5 µM) | 27.7 (≈ 42.3 µM) | 41.3 µg/mL | 52.9 (≈ 80.7 µM) | 30.3 (≈ 46.3 µM) | 25.6 µg/mL | 30.2 (≈ 46.2 µM) | 
O=C(O)C(CSC(c1ccccc1)(c1ccccc1)c1ccccc1)N=Cc1cccs1 (stereo not drawn) | > 100 µM | > 62.4 µM | > 96.8 | > 59.8 µM | > 100 µM | > 79.5 µM | > 60.7 µM | > 100 µM | 19.1 µM | > 100 µM |  |  |  |  |  |  |  |  |  | 
NNC(=O)c1ccccc1Nc1ccccc1C(=O)NN | > 100 µM | > 100 µM |  | > 100 µM | > 100 µM | > 100 µM | > 100 µM | > 100 µM | > 100 µM | > 100 µM |  |  |  |  |  |  |  |  |  | 
NCCNc1nc(N2CCCC2)c2nc(Cl)c(NCc3ccccc3)nc2n1 | 3.99 µM | 2.87 µM | 4.4 | 3.06 µM | 5.3 µM | 3.49 µM | 2.93 µM | 3.84 µM | 4.16 µM | 4 µM |  |  |  |  |  |  |  |  |  | 
CCC(C)C1NC(=O)C2CCCN2C(=O)C(CC2CO2)OC(=O)CCNC(=O)C(C)N(C)C(=O)C(C(C)C)N(C)C1=O (stereo not drawn) | > 100 µM | > 100 µM | > 100 | 0.118 µM | > 100 µM |  | > 100 µM | > 100 µM | > 100 µM |  |  |  |  |  |  |  |  |  |  | 
O=S(=O)(/N=C(\NO)Nc1ccc(Cl)cc1)c1ccc(S(=O)(=O)c2ccccc2)s1 | 89.3 µM | 60.3 µM | 41.8 | 29.3 µM | 93.8 µM |  | 60.4 µM | > 100 µM | 55.9 µM | 41 µM |  |  |  |  |  |  |  |  |  | 
CS(=O)(=O)c1nc(-c2cc3c(c(S(C)(=O)=O)n2)CCCC3)cc2c1CCCC2 | > 100 µM | > 100 µM | > 100 | > 100 µM | > 100 µM | 25.3 µM | > 100 µM | > 100 µM | > 100 µM | > 100 µM |  |  |  |  |  |  |  |  |  | 
O=S(=O)(O)c1cccc2c(N=Nc3c(O)ccc4ccccc34)cccc12 | > 100 µM | > 100 µM | > 100 | > 100 µM | > 100 µM | > 100 µM | > 100 µM | > 100 µM | > 100 µM | > 100 µM |  |  |  |  |  |  |  |  |  | 
C/C(=N\NC(=O)c1cccnc1)c1cccc(/C(C)=N/NC(=O)c2cccnc2)n1 | 12.2 µM | > 100 µM | 68.1 | > 100 µM |  | 42.5 µM | > 100 µM | > 100 µM | 47.3 µM | 35.4 µM |  |  |  |  | 10.3 µM |  |  | 2.05 µM |  | 4.86
CC(=O)N(C)c1ccc2c(ccc[n+]2[O-])c1[N+](=O)[O-] | > 100 µM | > 100 µM | > 100 | > 100 µM | > 100 µM | > 100 µM | > 100 µM | > 100 µM | > 100 µM | > 100 µM |  |  |  |  |  |  |  |  |  | 
Nc1ccccc1N/C(=C\C(=O)C(Cl)(Cl)Cl)c1ccccc1 | 75.4 µM | 32 µM |  | 35.6 µM | > 100 µM | > 100 µM | > 100 µM | 80.4 µM | 65.2 µM | 79.1 µM |  |  |  |  |  |  |  |  |  | 
C[C@]12CC[C@@H]3c4ccccc4CC[C@H]3[C@@H]1CC[C@@H]2O | > 100 µM | > 100 µM |  | > 100 µM |  | > 100 µM | > 100 µM | > 100 µM | > 100 µM | > 100 µM |  |  |  |  |  |  |  |  |  | 
CC(Sc1ccccc1)C(CO)(CO)[N+](=O)[O-] (stereo not drawn) | 30.6 µM | 26 µM |  | 28.2 µM | 32.1 µM | 35.4 µM |  | 30.6 µM | 29.4 µM | 30.2 µM |  |  |  |  |  |  |  |  |  | 
C[C@]12CCC(=O)C=C1CC[C@@H]1[C@@H]2[C@@H](O)C[C@@]2(C)[C@H]1CC[C@]2(O)C(=O)CO | > 100 µM | > 100 µM | > 100 | > 100 µM | > 100 µM | > 100 µM | > 100 µM | > 100 µM | > 100 µM | > 100 µM |  |  |  |  |  |  |  |  |  | 
Clc1ccc(Nc2nc(Cl)c3[nH]cnc3n2)cc1Cl | > 100 µM | > 100 µM | 34.9 | 34.1 µM | > 100 µM | 52.3 µM | 64.7 µM | 87.5 µM | 61 µM | 83.3 µM |  |  |  |  |  |  |  |  |  | 
COC(=O)C1C(C)N1C (stereo not drawn) |  | > 100 µM |  | > 100 µM | > 100 µM | > 100 µM | > 100 µM | > 100 µM | > 100 µM | > 100 µM |  |  |  |  |  |  |  |  |  | 
CN1C2CCC1C(C(O)c1ccccc1[N+](=O)[O-])C(=O)C2 (stereo not drawn) | > 100 µM | > 100 µM | > 100 | > 100 µM | > 100 µM |  | > 100 µM | > 100 µM | > 100 µM | > 100 µM |  |  |  |  |  |  |  |  |  | 
